# Measured values as given in patent US11976083B2, “Inhibitors of peptidylarginine deiminases” (Gilead Sciences, Inc., priority 2020, dated 2024).
# Biological target: T1, human PAD4 (Homo sapiens, UniProt Q9UM07)
# T1 construct: human PAD4 (NM_012387), A2-P663, was PCR amplified; His-SUMO (N, cleaved yes); made in house; host or cells: E. coli BL21(DE3)
# Test: In vitro PAD4 BAEE biochemical assay
# Details: BAEE substrate 3 mM, 5 nM PAD4, 2 mM calcium chloride; geometric mean of multiple experiments
# How it was run: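 Assay was run at 25 °C using 3 mM BAEE and 5 nM human PAD4 after a 30 min compound preincubation; ammonia produced over 2 h was quantified by OPA-derived fluorescence. Full inhibition was defined by 50 µM BB-Cl-Amidine, and IC50 came from variable-slope nonlinear regression.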
# T1 sequence (Q9UM07 2-663): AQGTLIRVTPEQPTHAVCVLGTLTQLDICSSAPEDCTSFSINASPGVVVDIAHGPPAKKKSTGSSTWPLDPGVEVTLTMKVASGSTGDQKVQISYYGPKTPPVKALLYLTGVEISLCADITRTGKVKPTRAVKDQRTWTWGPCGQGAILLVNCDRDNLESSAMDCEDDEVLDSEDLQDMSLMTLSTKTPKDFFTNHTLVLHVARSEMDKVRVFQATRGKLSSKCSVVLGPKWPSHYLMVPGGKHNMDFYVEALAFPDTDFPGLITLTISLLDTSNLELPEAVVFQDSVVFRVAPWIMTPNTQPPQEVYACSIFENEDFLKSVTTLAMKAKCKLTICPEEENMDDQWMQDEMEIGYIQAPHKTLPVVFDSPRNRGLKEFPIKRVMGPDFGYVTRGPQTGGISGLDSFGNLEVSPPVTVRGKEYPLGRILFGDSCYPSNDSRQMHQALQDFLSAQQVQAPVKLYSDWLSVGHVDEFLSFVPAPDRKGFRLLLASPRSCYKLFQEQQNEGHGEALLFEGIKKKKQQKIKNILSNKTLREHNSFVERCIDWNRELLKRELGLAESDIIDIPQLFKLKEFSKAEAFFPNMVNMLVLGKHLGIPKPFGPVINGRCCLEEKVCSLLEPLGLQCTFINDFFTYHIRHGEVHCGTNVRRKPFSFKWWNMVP
row,Structure (SMILES),IC50 [nM]
1,"C[C@@H]1[C@H](N)CCCN1C(=O)c1cc(F)c2c(c1)nc(-c1cc3ccc4nc3n1CCCCCc1nc3ccsc3cc1C(=O)N[C@@H]4C)n2C1CC1 [Example 796, (2~{R})-20-[5-[(2~{R},3~{R})-3-amino-2-methyl-piperidine-1-carbonyl]-1-cyclopropyl-7-fluoro-benzimidazol-2-yl]-2-methyl-8-thia-3,12,19,25-tetrazapentacyclo[17.5.2.0^ {5,13}.0^{7,11).0^{22,26}] hexacosa-1(24),5(13), 6,9,11,20,22,25-octaen-4-one]",5
2,"CO[C@@H]1CCN(C(=O)c2cc(F)c3c(c2)nc(-c2cc4ccc5nc4n2CCCCCc2nc4ccsc4cc2C(=O)N[C@@H]5C)n3C2CC2)C[C@@H]1N [Example 797, (2~{R})-20-[5-[(3~{S},4~{R})-3-amino-4-methoxy-piperidine-1-carbonyl]-1-cyclopropyl-7-fluoro-benzimidazol-2-yl]-2-methyl-8-thia-3,12,19,25-tetrazapentacyclo[17.5.2.0^ {5,13}.0^{7,11}.0^{22,26}] hexacosa-1(24),5(13), 6,9,11,20,22,25-octaen-4-one]",16
3,"C[C@H]1NC(=O)c2ccc(Cl)nc2CCCCCn2c(-c3nc4cc(C(=O)N5C[C@H]6CC[C@@H]5[C@@H]6N)cc(F)c4n3C3CC3)cc3ccc1nc32 [Example 798, (2~{R})-17-[5-[(1~{R},4~{R}, 7~{R})-7-amino-2-azabicyclo [2.2.1]heptane-2-carbonyl]-1-cyclopropyl-7-fluoro-benzimidazol-2-yl]-8-chloro-2-methyl-3,9,16,22-tetrazatetracyclo[14.5.2.0^ {5,10}.0^{19,23}]tricosa-1(21),5(10),6,8,17,19,22-heptaen-4-one]",17
4,"COc1cc(C(=O)N2CCC[C@@H](N)[C@H]2C)cc2nc(-c3cc4ccc5nc4n3CCCCCCC3(COC3)C(=O)N[C@@H]5C)n(C)c12 [Example 799, (11~{R})-17-[5-[(2~{R},3~{R})-3-amino-2-methyl-piperidine-1-carbonyl]-7-methoxy-1-methyl-benzimidazol-2-yl]-11-methyl-spiro[1,10,19-triazatricyclo[10.5.2.0^ {15,18}]nonadeca-12,14,16,18-tetraene-8,3′-oxetane]-9-one]",12
5,"COc1cc(C(=O)N2C[C@@H](O)C[C@@H](N)[C@H]2C)cc2nc(-c3cc4ccc5nc4n3CCCCCCC(C)(C)C(=O)N[C@@H]5C)n(C)c12 [Example 800, (11~{R})-17-[5-[(2~{R},3~{R}, 5~{S})-3-amino-5-hydroxy-2-methyl-piperidine-1-carbonyl]-7-methoxy-1-methyl-benzimidazol-2-yl]-8,8,11-trimethyl-1,10,19-triazatricyclo [10.5.2.0^{15,18}]nonadeca-12,14,16,18-tetraen-9-one]",74
6,"COc1cc(C(=O)N2C[C@@H]3NCCO[C@@H]3C[C@@H]2C)cc2nc(-c3cc4ccc5nc4n3CC(F)(F)CCC[C@@H]3C[C@H]3C(=O)N[C@@H]5C)n(C)c12 [Example 801, (2~{R},5~{R},7~{R})-14-[5-[(4~{a}~{S),7~{S},8~{a}~ {R})-7-methyl-2,3,4,4~{a}, 5,7,8,8~{a}-octahydropyrido [4,3-b][1,4]oxazine-6-carbonyl]-7-methoxy-1-methyl-benzimidazol-2-yl]-11,11-difluoro-2-methyl-3,13,19-triazatetracyclo[11.5.2.0^ {5,7}.0^{16,20}]icosa-1(18),14,16,19-tetraen-4-one]",334
7,"CO[C@H]1C[C@@H]1n1c(-c2cc3ccc4nc3n2CC(F)(F)CCC[C@@H]2C[C@H]2C(=O)N[C@@H]4C)nc2cc(C(=O)N3CCC[C@@H](N)[C@H]3C)cc(F)c21 [Example 802, (2~{R},5~{R},7~{R})-14-[5-[(2~{R},3~{R})-3-amino-2-methyl-piperidine-1-carbonyl]-7-fluoro-1-[(1~{S},2~{S})-2-methoxycyclopropyl]benzimidazol-2-yl]-11,11-difluoro-2-methyl-3,13,19-triazatetracyclo [11.5.2.0^{5,7}.0^{16,20}] icosa-1(18),14,16,19-tetraen-4-one]",22
8,"COc1cc(C(=O)N2CC[C@H]3OCCN[C@H]3C2)cc2nc(-c3cc4ccc5nc4n3CC(F)(F)CCC[C@@H]3C[C@H]3C(=O)N[C@@H]5C)n(C)c12 [Example 803, (2~{R},5~{R},7~{R})-14-[5-[(4~{a}~{S},8~{a}~{R})-2,3,4,4~{a},5,7,8,8~{a}-octahydropyrido[4,3-b][1,4]oxazine-6-carbonyl]-7-methoxy-1-methyl-benzimidazol-2-yl]-11,11-difluoro-2-methyl-3,13,19-triazatetracyclo[11.5.2.0^ {5,7}.0^{16,20}]icosa-1(18),14,16,19-tetraen-4-one]",118
9,"CO[C@H]1C[C@@H]1n1c(-c2cc3ccc4nc3n2CC(F)(F)CCC[C@@H]2C[C@H]2C(=O)N[C@@H]4C)nc2cc(C(=O)N3C[C@H]4CC[C@@H]3[C@@H]4N)cc(F)c21 [Example 804, (2~{R},5~{R},7~{R})-14-[5-[(1~{R},4~{R},7~{R})-7-amino-2-azabicyclo[2.2.1]heptane-2-carbonyl]-7-fluoro-1-[(1~{S},2~{S})-2-methoxycyclopropyl]benzimidazol-2-yl]-11,11-difluoro-2-methyl-3,13,19-triazatetracyclo[11.5.2.0^ {5,7}.0^{16,20}]icosa-1(18),14,16,19-tetraen-4-one]",27
10,"C[C@@H]1[C@H](N)CCCN1C(=O)c1cc(Cl)c2c(c1)nc(-c1cc3ccc4nc3n1CC(F)(F)CCC[C@@H]1C[C@H]1C(=O)N[C@@H]4C)n2C1CC1 [Example 805, (2~{R},5~{R},7~{R})-14-[5-[(2~{R},3~{R})-3-amino-2-methyl-piperidine-1-carbonyl]-7-chloro-1-cyclopropyl-benzimidazol-2-yl]-11,11-difluoro-2-methyl-3,13,19-triazatetracyclo[11.5.2.0^ {5,7}.0^{16,20}]icosa-1(18),14,16,19-tetraen-4-one]",6
11,"CO[C@@H]1CCN(C(=O)c2cc(Cl)c3c(c2)nc(-c2cc4ccc5nc4n2CC(F)(F)CCC[C@@H]2C[C@H]2C(=O)N[C@@H]5C)n3C2CC2)C[C@@H]1N [Example 806, (2~{R},5~{R},7~{R})-14-[5-[(3~{S},4~{R})-3-amino-4-methoxy-piperidine-1-carbonyl]-7-chloro-1-cyclopropyl-benzimidazol-2-yl]-11,11-difluoro-2-methyl-3,13,19-triazatetracyclo[11.5.2.0^ {5,7}.0^{16,20}] icosa-1(18),14,16,19-tetraen-4-one]",42
12,"C[C@H]1NC(=O)c2ccc(Cl)nc2CCCCCn2c(-c3nc4cc(C(=O)N5C[C@H](N)CC[C@@H]5C)cc(F)c4n3C3CC3)cc3ccc1nc32 [Example 807, (2~{R})-17-[5-[(2~{S},5~{R})-5-amino-2-methyl-piperidine-1-carbonyl]-1-cyclopropyl-7-fluoro-benzimidazol-2-yl]-8-chloro-2-methyl-3,9,16,22-tetrazatetracyclo[14.5.2.0^ {5,10}.0^{19,23}]tricosa-1(21),5(10),6,8,17,19,22-heptaen-4-one]",31
13,"C[C@H]1NC(=O)c2ccc(Cl)nc2CCCCCn2c(-c3nc4cc(C(=O)N5[C@H]6CC[C@@H]5[C@H](N)C6)cc(F)c4n3C3CC3)cc3ccc1nc32 [Example 808, (2~{R})-17-[5-[(1~{R},2~{R},4~ {S})-2-amino-7-azabicyclo [2.2.1]heptane-7-carbonyl]-1-cyclopropyl-7-fluoro-benzimidazol-2-yl]-8-chloro-2-methyl-3,9,16,22-tetrazatetracyclo[14.5.2.0^ {5,10}.0^{19,23}]tricosa-1(21),5(10),6,8,17,19,22-heptaen-4-one]",15
14,"COc1cc(C(=O)N2C[C@H](N)[C@@H]3CC[C@H]2C3)cc2nc(-c3cc4ccc5nc4n3CCCCCc3nc(Cl)ccc3C(=O)N[C@@H]5C)n(C3CC3)c12 [Example 809, (2˜{R})-17-[5-[(1˜{S},4˜{R},5˜{R})-4-amino-2-azabicyclo[3.2.1]octane-2-carbonyl]-1-cyclopropyl-7-methoxy-benzimidazol-2-yl]-8-chloro-2-methyl-3,9,16,22-tetrazatetracyclo[14.5.2.0^{5,10}.0^{19,23}]tricosa-1(21),5(10),6,8,17,19,22-heptaen-4-one]",39
15,"C[C@H]1NC(=O)c2cnc(Cl)cc2CCCCCn2c(-c3nc4cc(C(=O)N5C[C@H](N)[C@@H]6CC[C@H]5C6)cc(F)c4n3C3CC3)cc3ccc1nc32 [Example 810, (2~{R})-17-[5-[(1~{S),4~{R},5~ {R})-4-amino-2-azabicyclo [3.2.1]octane-2-carbonyl]-1-cyclopropyl-7-fluoro-benzimidazol-2-yl]-8-chloro-2-methyl-3,7,16,22-tetrazatetracyclo[14.5.2.0^ {5,10}.0^{19,23}] tricosa-1(21),5(10),6,8,17,19, 22-heptaen-4-one]",25
16,"COc1cc(C(=O)N2C[C@H](N)[C@@H]3CC[C@H]2C3)cc2nc(-c3cc4ccc5nc4n3CCCCCc3nc(Cl)ccc3C(=O)N[C@@H]5C)c(C)n12 [Example 811, (2~{R})-17-[7-[(1~{S),4~ {R},5~{R})-4-amino-2-azabicyclo[3.2.1]octane-2-carbonyl]-5-methoxy-3-methyl-imidazo[1,2-a]pyridin-2-yl]-8-chloro-2-methyl-3,9,16,22-tetrazatetracyclo[14.5.2.0^ {5,10).0^{19,23}]tricosa-1(21),5(10),6,8,17,19,22-heptaen-4-one]",26
17,"C[C@H]1NC(=O)c2ccc(Cl)nc2CCCCCn2c(-c3nc4cc(C(=O)N5C[C@H](N)[C@@H]6CC[C@H]5C6)cc(Cl)c4n3C3CC3)cc3ccc1nc32 [Example 812, (2~{R})-17-[5-[(1~{S},4~{R}, 5~{R})-4-amino-2-azabicyclo [3.2.1]octane-2-carbonyl]-7-chloro-1-cyclopropyl-benzimidazol-2-yl]-8-chloro-2-methyl-3,9,16,22-tetrazatetracyclo[14.5.2.0^ {5,10}.0^{19,23}]tricosa-1(21),5(10),6,8,17,19,22-heptaen-4-one]",31
